Measurements reported in patent US8586572B2, “3-phenyl-azetidine derivatives useful as modulators of cortical catecholaminergic neurotransmission” (Integrative Research Laboratories Sweden AB, priority 2008, dated 2013).
Structures can show the parent of a compound that is named as a salt.

What was measured:
[1] = test system: extracellular NA, DA and 5-HT in striatum; assay: Microdialysis in awake and freely moving rats, dorsal striatum; format: in vivo, rat; conditions: 50 μmol/kg s.c., awake freely moving rats; for DA Stri ± SEM, maximum effect compared to baseline values: dopamine in striatum dialysate; for 5-HT Stri ± SEM, maximum effect compared to baseline values: serotonin in striatum dialysate
From the text: (§1) Male Sprague-Dawley rats weighing 220-320 g were used throughout the experiments. Before the experiment the animals were group housed, five animals in each cage, with free access to water and food. The animals were housed at least one week after arrival prior to surgery and use in the experiments. Each rat was used only once for microdialysis.
(§2) We use a modified version (Waters et al., 1994) of the I-shaped probe (Santiago and Westerink, 1990). The dialysis membrane we use is the AN69 poly-acrylonitrile/sodiummethalylsulfonate copolymer (HOSPAL; o.d./i.d. 310/220 μm: Gambro, Lund, Sweden). In the dorsal striatum we use probes with an exposed length of 3 mm of dialysis membrane and in the prefrontal cortex the corresponding length is 2.5 mm. The rats were operated under isoflurane inhalationanesthesia while mounted into a Kopf stereotaxic instrument. Co-ordinates were calculated relative to bregma; dorsal striatum AP +1, ML ±2.6, DV −6.3; Pf cortex, AP +3.2, 8° ML ±1.2, DV −4.0 according to (Paxinos & Watson, 1986). The dialysis probe was positioned in a burr hole under stereotaxic guidance and cemented with phosphatine dental cement.
(§3) The rats were housed individually in cages for 48 h before the dialysis experiments, allowing them to recover from surgery and minimizing the risk of drug interactions with the anaesthetic during the following experiments. During this period the rats had free access to food and water. On the day of experiment the rats were connected to a micro perfusion pump via a swiwel and were replaced in the cage where they could move freely within its confinements. The perfusion medium was a Ringer's solution containing in mmol/l: NaCl; 140, CaCl2; 1.2, KCl; 3.0, MgCl2; 1.0 and ascorbic acid; 0.04 according to (Moghaddam & Bunney, 1989). The pump was set to a perfusion speed of 2 μl/min and 40 μl samples were collected every 20 min. Each sample was analyzed at two HPLC systems. On an autoinjector (CMA 200) with a 10-port valve (Valco C10WE), holding two sample loops in series (4 μl and 20 μl), each brain dialysate sample is loaded in both loops simultaneously. At injection the 20 μl sample is introduced into a column switching system (reverse-phase combined with reverse-phase ion-pairing) for dopamine (DA), noradrenaline (NA), normetanephrine (NM), 3-methoxytyramine (3-MT) and serotonin (5-hydroxytryptamine, 5-HT) determination, while the 4 μl sample is introduced on a reverse-phase column for the chromatography of the acidic monoamine metabolites 3,4-di-hydroxyphenylacetic acid (DOPAC), homovanillic acid (HVA) and 5-hydroxyindoleacetic acid (5-HIAA). The currents generated by the two EC detectors are converted to digital data and evaluated using Chromeleon software (Dionex) on a PC. The method sample turn over time was 4.5 min and two parallel experiments are normally analyzed simultaneously on the system.
(§4) After the experiment the rats were uncoupled from the perfusion pump and decapitated. Their brains were rapidly taken out and fixed in Neo-fix solution (Kebolab, Sweden) for subsequent inspection of probe localisation. The Animal Ethics Committee in Göteborg, Sweden approved the procedures applied in these experiments.
(§5) The microdialysis was performed in awake and freely moving rats.
(§6) Dopamine=DA; Norepinephrine=NA; Serotonin=5-HT; Stri=Striatum; PFC=Prefrontal Cortex.

[2] = test system: extracellular NA, DA and 5-HT in prefrontal cortex; assay: Microdialysis in awake and freely moving rats, prefrontal cortex; format: in vivo, rat; conditions: 50 μmol/kg s.c., awake freely moving rats; for DA PFC ± SEM, maximum effect compared to baseline values: dopamine in prefrontal cortex dialysate; for NA PFC ± SEM, maximum effect compared to baseline values: norepinephrine in prefrontal cortex dialysate; for 5-HT PFC ± SEM, maximum effect compared to baseline values: serotonin in prefrontal cortex dialysate
From the text: as §1, §2, §3, §4, §5, §6

Row | Structure (SMILES) | melting point [°C] | DA Stri ± SEM, maximum effect compared to baseline values [1] | 5-HT Stri ± SEM, maximum effect compared to baseline values [1] | DA PFC ± SEM, maximum effect compared to baseline values [2] | NA PFC ± SEM, maximum effect compared to baseline values [2] | 5-HT PFC ± SEM, maximum effect compared to baseline values [2] | further results
1 | CCN1CC(O)(c2cc(F)cc(F)c2)C1 (as salt: fumaric acid salt) | 140 to 141 |  |  |  |  |  | 
2 | CCN1CC(O)(c2cc(F)cc(Cl)c2)C1 (as salt: fumaric acid salt) | 166 to 168 |  |  |  |  |  | 
3 | CCN1CC(O)(c2cccc(Cl)c2F)C1 (as salt: fumaric acid salt) | 172 to 173 |  |  |  |  |  | 
4 | CCN1CC(O)(c2cccc(F)c2F)C1 (as salt: fumaric acid salt) [Example 1, 3-(2,3-difluorophenyl)-1-ethylazetidin-3-ol] | 148 to 150 |  |  |  |  |  | 
5 | CCN1CC(O)(c2ccc(F)c(F)c2)C1 (as salt: fumaric acid salt) [Example 2, 3-(3,4-difluorophenyl)-1-ethylazetidin-3-ol] | 177 to 179 |  |  |  |  |  | 
6 | COC1(c2cccc(F)c2F)CNC1 (as salt: oxalic acid salt) [Example 8, 3-(2,3-difluorophenyl)-3-methoxyazetidine] | 141 to 142 |  |  |  |  |  | 
7 | CCN1CC(OC)(c2cccc(F)c2F)C1 (as salt: oxalic acid salt) [Example 9, 3-(2,3-difluorophenyl)-1-ethyl-3-methoxyazetidine] | 147 to 148 |  |  |  |  |  | 
8 | CCN1CC(O)(c2cccc(F)c2F)C1 [Example 1, 3-(2,3-difluorophenyl)-1-ethylazetidin-3-ol] |  | 219 ± 113% of control | 113 ± 13% of control | 211 ± 61% of control | 438 ± 91% of control | 130 ± 11% of control | NA Stri ± SEM, maximum effect compared to baseline values ([1]; norepinephrine in striatum dialysate): 261 ± 151% of control
9 | CCN1CC(O)(c2ccc(F)c(F)c2)C1 [Example 2, 3-(3,4-difluorophenyl)-1-ethylazetidin-3-ol] |  | 112% of control | 162% of control | 309 ± 62% of control | 397 ± 59% of control | 182 ± 33% of control | 
10 | CCN1CC(OC)(c2cccc(F)c2F)C1 [Example 9, 3-(2,3-difluorophenyl)-1-ethyl-3-methoxyazetidine] |  | 122 ± 12% of control | 134 ± 22% of control | 215 ± 54% of control | 298 ± 79% of control | 169 ± 65% of control | 
